Tested on: Phytopathogenic nematodes (Helicotylenchus and Hemicycliophora)
Experiment: NEPOT test in soil pots: full formulation, co-formulants, lutein alone (Example 14)
Assay type: in vivo
Settings: 20 mL/pot, 7 DAA; for number of nematodes in soil (living individuals, Baermann): 320 individuals per pot
Description: The purpose of this test was to evaluate the efficacy of the products coded as P1, P2 and P3 of the company IDAI NATURE against a mixture of phytopathogenic nematodes by the company NEVAL.
This study evaluates the behaviour under controlled conditions, in soil (NEPOT test)* of a battery of products against a mixture of phytopathogenic nematodes.
This study consists of 3 compositions, each of them at 2 doses and a control without treatment.
The juveniles were obtained from a freshly extracted sample of roots of sports lawns.
It is based on pots or glasses with the right amount of 100 mL for a quantification per sample.
• Product 1: N-09-04—Full formulation • Product 2: Co-formulant package (without A.I.)—(sunflower oil+tensioactives polysorbates 20, 80 and 85+butyl glycol+TBHQ+water) • Product 3: The Active ingredient alone—Lutein
The trial was carried out laboratory in Xilxes—Castelon—Spain—under controlled conditions and plant pathogenic nematodes in soil in a volume of 100 mL per pot. The three replicates per treatment were worked in 100 mL pots of soil with 320 plant pathogenic nematodes in each pot. • Pest: Phytopathogenic nematodes (Helicotylenchus and Hemicycliophora) • Innoculum quantity: 320 individuals per experimental unit • Substract: Sandy soil • Application: Manual—20 mL/pot • Design: Randomized Complete Block (RCB)—3 replicates per treatment • Equipment: Manual application: with micropipette and MAT 09.1 balance • Application code: A=28/06/2021—preparation+application A • Extraction=05/07/2021 (7 DAA according Baermann) • Quantification=06/07/2021
Products 1 (N-09-04 full formulation) and product 2 (the full formulation without the Lutein) were mixed with water, while product 3 (Lutein alone—active ingredient), difficult miscibility was deposited on the ground, adding the water later and mixing everything in the soil with a teaspoon shaking for 30 seconds each replica.
After the study carried out under laboratory conditions, each of the soil samples was extracted using the Baermann funnel procedure for 24 hours and then quantified under a biological microscope.
The Baermann procedure has the particular option of extracting only those individuals that have mobility, that is, that are alive, so the result is extrapolated to living individuals.

CC1=C[C@H](O)CC(C)(C)[C@H]1/C=C/C(C)=C/C=C/C(C)=C/C=C/C=C(C)/C=C/C=C(C)/C=C/C1=C(C)C[C@@H](O)CC1(C)C [Product 3, Lutein]
efficacy / control (in brackets) (0.375 mL/L): 78.4% | number of nematodes in soil (living individuals, Baermann) (0.375 mL/L): 68.0 | efficacy / control (in brackets) (0.563 ml/L): 77.5% | number of nematodes in soil (living individuals, Baermann) (0.563 ml/L): 71.0 | efficacy / control (in brackets) (5 ml/L): 4.2% | efficacy / control (in brackets) (7.5 ml/L): 40.8%

From patent US20250204530A1, “USE OF CAROTENIOD COMPOSITION FOR NEMATODE CONTROL” (IDAI NATURE, S.L., priority 2022, published 2025)
